Among the data in patent US6177103A, “Processes to generate submicron particles of water-insoluble compounds” (RTP Pharma, Inc., priority 1999, dated 2001) are mean particle size, nanoparticle size and particle size values, retold here.

The nature of series [1]: Particle sizing by photon correlation spectroscopy, fenofibrate microparticles by RELGS process (Example 2). The class given is physicochemical. The settings on record: Lipoid E-80 and Tween-80 in liquefied carbon dioxide at 3000 psi expanded into water, 22° C. The procedure:
The particle sizing was performed by photon correlation spectroscopy using Submicron Particle Sizer-Autodilute Model 370 (NICOMP Particle Sizing Systems, Santa Barbara, Calif.). This instrument provides number weighted, intensity weighted, and volume weighted particle size distributions as well as multi-modality of the particle size distribution, if present.

The conditions of series [2]: cited from earlier work.

As to `CC(C)OC(=O)C(C)(C)Oc1ccc(C(=O)c2ccc(Cl)cc2)cc1` [Fenofibrate, fenofibrate], the mean particle size result in series [1] is “about 200 nm”.

Regarding `CC1=C(/C=C/C(C)=C/C=C/C(C)=C/C=C/C=C(C)/C=C/C=C(C)/C=C/C2=C(C)CCCC2(C)C)C(C)(C)CCC1` [beta-carotene], the nanoparticle size in series [2] (expansion of ethane into a viscous gelatin solution) is on record as 300 nm.

Turning to `CC[C@H](C)C(=O)O[C@H]1C[C@@H](C)C=C2C=C[C@H](C)[C@H](CC[C@@H]3C[C@@H](O)CC(=O)O3)[C@H]21` [lovastatin], the particle size in series [2] (micro-particles by rapid expansion from liquefied-gas solution in the supercritical region, most particle sizes reported for organic materials) is recorded as 5-100 micron.
